Test results from patent publication US20060024239A1, “Persistent post-viral cough drug and treatment method” (priority 2004, published 2006).

Test system: persistent post-viral cough
Assay: Treatment of patients with persistent post-viral cough (case reports and the inventors' clinical experience)
Assay type: in vivo, human
From the text: As opposed to what is found in the medical literature, in the usual patient that we have observed and treated for sub-acute or chronic cough after viral respiratory infection, evidence for post-nasal drip, sinusitis, asthma, or gastroesophageal reflux has been lacking. Physical examination of the nose, throat, sinuses, and chest has been unremarkable as have chest x-ray, and simple pulmonary function tests. Antihistamines and decongestants as might be used for post-nasal drip have proven disappointing and have rarely afforded relief of the persistent cough when tried. Antibiotic treatments likewise have been effective to alleviate cough only in rare instances. […] We have been surprised by the regularity with which this treatment has proven effective.
Because the respiratory tract is a continuous conduit, topical medications can be applied to the airways surface in aerosol form. The term “aerosol” as used herein is as conventionally defined to indicate either a liquid or solid particle suspended in gas. Many chemical entities in aerosol delivery devices, both liquid and solid, have been developed and marketed for treating respiratory disorders. These include aerosol medications for application to the nose or for inhalation through the mouth. We have utilized a variety of inhaled topical corticosteroid aerosols to treat persistent post-viral cough and have found them all to be generally effective. The following are two examples of aerosols and regimens that we have found effective: • Beclovent Inhalation Aerosol (beclomethasone diprroprionate, USP): two to three sprays t.i.d. for six days. • Pulmicort Turbuhaler® 200 mcg (budesonide powder): one spray t.i.d. for six days.
The inventors have improvised treatment for protracted post-viral cough in our patients by utilizing commercially available multi-dose corticosteroid aerosol inhalers that are not indicated for that purpose. These typically provide enough chemical agent for a 29-30 day period. They are neither labeled for short-term use or for treatment of post-viral cough. While we have not encountered medicinal side effects in our treated patients, a general principal of pharmacologic treatment is to avoid overuse of medication. The desirability to minimize treatment and minimize the use of corticosteroids in particular is well recognized. On occasion, the inventors have utilized smaller size inhaler samples with fewer dosing actuations that have been available through the courtesy of pharmaceutical representatives. Although less consistently available, the devices with lesser number of actuations are considered preferable to prevent inadvertent or purposeful overuse of medication. An aerosol device containing a corticosteroid agent for treatment of about two weeks or less is preferred, and about 7 days is most preferred. It is to be noted that, lacking labeling, no inhaled corticosteroid aerosol used experimentally by the inventors comprises a “drug” to treat the persistent post-viral cough patients as herein described.
The following case reports further exemplify the present invention: • 1. A person with no previous respiratory history had initial symptoms consisting of nasal congestion, rhinorrhea, post-nasal drip, and dry cough. All symptoms but cough resolved within two week and dry cough persisted for 28 days from onset.
We have likewise found prompt response to a short course treatment of inhaled corticosteroid in these individuals, for example: […]

| SMILES | subsequent resolution of cough (case 1: 2 sprays (40 mcg@) tid for six days, after one week) | recurrence of cough (case 1: 2 sprays (40 mcg@) tid for six days, no further medication required) | improvement of cough at one week (case 1: dry cough for 28 days, 2 sprays (40 mcg@) tid for six days, slight residual in AM) | recurrence of cough (case 2: 2 sprays (40 mcg@) tid for five days) | resolution of cough (case 2: cough for 25 days, 2 sprays (40 mcg@) tid for five days) | recurrence of cough (case 3: 2 sprays (40 mcg@) tid for five days) | resolution of cough (case 3: severe dry cough for 22 days, 2 sprays (40 mcg@) tid for five days) | recurrence of cough (case 4: 2 sprays (40 mcg@) tid for ten days) | resolution of cough (case 4: severe dry cough for 6 weeks, 2 sprays (40 mcg@) tid for ten days) | resolution of symptoms (case 2: five-day course, 500 mg per day, initial cold symptoms with productive cough) | improvement of cough (case 4: 500 mg per day for five days) |
| --- | --- | --- | --- | --- | --- | --- | --- | --- | --- | --- | --- |
| C[C@H]1C[C@H]2[C@@H]3CCC4=CC(=O)C=C[C@]4(C)[C@@]3(Cl)[C@@H](O)C[C@]2(C)[C@@]1(O)C(=O)CO [Beclomethasone MDI, Beclomethasone] | complete resolution | did not reoccur | significant improvement of cough | no recurrence of cough | complete resolution of cough | no recurrence | complete resolution of cough | did not reoccur | complete resolution of cough | – | – |
| CC[C@H]1OC(=O)[C@H](C)[C@@H](O[C@H]2C[C@@](C)(OC)[C@@H](O)[C@H](C)O2)[C@H](C)[C@@H](O[C@@H]2O[C@H](C)C[C@H](N(C)C)[C@H]2O)[C@](C)(O)C[C@@H](C)CN(C)[C@H](C)[C@@H](O)[C@]1(C)O [azithromycin] | – | – | – | – | – | – | – | – | – | all symptoms resolved with the exception of a non-productive “tickling” cough | without improvement of the cough |
